Patent US20230090255A1, “MAGL INHIBITOR, PREPARATION METHOD THEREFOR AND USE THEREOF” (LUNAN PHARMACEUTICAL GROUP CORPORATION, priority 2019, published 2023)

Assays:
[1] = biological target: T1, recombinant human protein MAGL (Homo sapiens, UniProt Q99685); test: MAGL enzyme analysis (Cayman MAGL inhibitor screening kit); assay type: biochemical; settings: 4-nitrophenylacetic acid substrate, absorbance 410 nm, read-out: MAGLXIC50
T1 construct: purchased Cayman
T1 sequence (Q99685 1-303): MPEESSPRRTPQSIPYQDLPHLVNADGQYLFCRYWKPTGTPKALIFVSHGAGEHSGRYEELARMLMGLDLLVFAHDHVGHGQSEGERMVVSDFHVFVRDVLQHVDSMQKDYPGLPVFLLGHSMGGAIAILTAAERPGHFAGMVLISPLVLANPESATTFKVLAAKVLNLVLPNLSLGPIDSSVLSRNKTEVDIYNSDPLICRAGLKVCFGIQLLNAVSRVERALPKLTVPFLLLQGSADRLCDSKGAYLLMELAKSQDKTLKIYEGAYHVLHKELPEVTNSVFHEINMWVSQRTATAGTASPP
Procedure: 150 µL 1Xassay buffer, 10 µL recombinant human protein MAGL and 10 µL different concentrations of MAGL inhibitors (six points within 1 nM to 1000 nM) were added to per well of a 96-well plate. JZL195 (a positive control inhibitor) served as a positive control well, after incubation for 5 min at room temperature, per well was added with 10 µL MAGL substrate, and […] were vibrated for 10 s and placed for 10 min at room temperature, then an absorbance was detected at 410 nm. […] Graphad Prism 5.0 was taken to calculate IC50 curves fitting each inhibitor.

[2] = Tissue distribution test in mice; assay type: in vivo; design: content in the brain (tissue distribution): unit not given here; settings: 16 mg/kg subcutaneous injection
[3] = tested on: reserpine-induced mice depression; test: Reserpine-induced mice depression; assay type: in vivo, ICR mouse; design: Awakening / Finger contact / Head touch / Fear / Autonomic activity / Eyelid closure / Upright: scale not given here; settings: for Autonomic activity / Awakening / Eyelid closure / Fear / Finger contact / Head touch / Upright: 2 h after reserpine 4 mg/kg
Procedure: • Species: ICR mouse • Microbiological level: SPF • Quantity and sex of the animals purchased: male: 75; female: 75 • Quantity and sex of the animals used: male: 75; female: 75 • Body weight: 13-18 g when accepted
Group design: there were 50 pieces for each batch of animals and 3 batches in total; each batch of animals were randomly divided into 5 groups; low, middle and high-dose groups of the samples for test, blank control group and model group; a sample for test was tested per batch.
3.1 Animals were administrated via subcutaneous injection per day with doses of 4, 8 and 16 mg/kg for 6 d in total. 2 h later after the final administration, each animal was subcutaneously injected with 4 mg/kg reserpine except the blank control group; afterwards, indicators, such as, awakening, finger contact, fear, head touch, autonomic activity, upright and eyelid closure were determined 2 h later.
Data statistics and analysis were completed via a computer by SPSS 17.0 software and office 2016, and data statistics was inspected by Kruskal-Wallis. If the Kruskal-Wallis inspection result is significant ((P<0.05), multiple comparison inspection is further performed by a Mann-Whitney U nonparametric test method.

[4] = tested on: ulcerative colitis mice; test: Mice ulcerative colitis (DSS); assay type: in vivo, BALB/c mice; settings: DSS mice, 100 mg/kg ig
Excerpt: Healthy male SPF-level BALB/c mice (8-week old and body mass: (20±2) g).
Modeling: the mice were randomly divided into […] at the end of the quarantine, 10 pieces for each group. The mice in the normal group drank normal water freely, and the rest groups of mice drank 1.0%-1.5% DSS solution freely for modeling, 7 d later after modeling, the mice in the modeling group drank normal water freely for 7 d, and 14 d served as a modeling period for four continuous periods, and the mice in the modeling group were administered at the same time.
End point of the experiment: experimental administration was performed for four periods, and dissection was performed on the 3rd and 4th day of the recovery period of the 4th period.
Test indicators: the mice were weighed twice a week after the beginning of the administration; diarrhea and hematochezia of the mice were observed, and times of hematochezia were recorded.
At the end of the experiment, the mice were dissected and weighed, and narcotized to take blood, then serum was preserved at -80° C. Spleen was taken and weighed to calculate the spleen index. The content of IL-1β in serum was detected via ELISA. Colorectum was cut and taken to measure the length of colorectum, then immobilized by formaldehyde and dyed by HE to detect the pathological change.

[5] = tested on: mice writhing caused by acetic acid; test: Mice writhing caused by acetic acid; settings: positive control 10 mg/kg ig
Procedure: Each compound was prepared into a suspension by 0.5% sodium carboxymethylcellulose respectively, and then set according to the dose, and each administration group was administered intragastrically; the model group was administered intragastrically an equal volume of 0.5% sodium carboxymethylcellulose.
Mice were intraperitoneally injected with acetic acid to cause a large area and more lasting painful stimuli in deep enterocoelia, causing mice to produce writhing responses. After being administered for 1 h, each dose group was intraperitoneally injected with 0.7% acetic acid-normal saline solution (0.1 ml/10 g).
The time (pain latent time) that the mice started to appear writhing after being intraperitoneally injected with acetic acid was recorded.
The writhing response times of each mouse within 20 min were recorded after injecting acetic acid to cause pain, and then, the writhing inhibition ratio of each administration group was calculated.
Writhing inhibition ratio = [(writhing times of the control group -writhing times of the administration group)/writhing times of the control group] × 100%
Experimental data is shown by x±s and subjected to variance analysis by SPSS 15.0 software.

[6] = tested on: mice with inflammatory pain; test: Pain threshold of mice with inflammatory pain (complete Freund's adjuvant); assay type: in vivo, SD mice; settings: complete Freund's adjuvant paw model, positive control 10 mg/kg ig once per day
Procedure: […] (180±20) g were injected with a complete Freund’s adjuvant (50 µL/piece) at the right rear plantar of mice, and mice in the control group were injected with the corresponding volume of 0.5% sodium carboxymethylcellulose to establish a paw edema inflammatory pain model. After modeling, the mice were administered for 7 d continuously, and administered intragastrically once per day. Pain thresholds (s) of the mice were respectively determined on the 1st, 3rd and 7th day before administration and after modeling at different periods of time.
Grouping and administration were the same as those of Example 40.

[7] = tested on: mice pain response induced by hot plate; test: Mice pain response induced by hot plate; assay type: in vivo, ICR mice; settings: hot plate 55°C, positive control 10 mg/kg ig 7 d
Procedure: Female ICR mice (20±2) g were placed on an intelligent hot plate at 55±0.5° C., and latency (s) that the plantar of mice touched the hot plate until the occurrence of a hind paws licking response served as a pain threshold indicator; the mice (response latency <5 s or >30 s) or jumping mice were eliminated.
Grouping and administration were the same as those in Example 40.
The mice were continuously administered intragastrically for 7 consecutive days; the pain threshold of each group of mice was respectively determined once at 30, 60, 90 and 120 min after the final administration; the pain threshold greater than 60 s was calculated by 60 s.

[8] = tested on: reserpine-induced mice migraine; test: Reserpine-induced mice migraine; assay type: in vivo, ICR mice
Procedure: The mice in the blank control group and model group were administered intragastrically via a solvent from the 5th day after modeling, and the rest groups of mice were respectively administered corresponding medicaments and doses for intragastric administration for 10 consecutive days; 1 h later after the final administration, the mice were weighed; blood was taken at inner canthus to detect blood coagulation time; whole blood was taken, and cerebrum was taken on an ice and preserved at -20° C. for the subsequent experiment.
Behavioral test: tail suspension activity was performed; the position 1 cm away from the tail of the mice was glued by an adhesive tape on the 9th day of the test, and the adhesive tape was penetrated by a steel needle, and hung in a dark box such that the mice were hung upside down; then the mice struggling times (total number of overturning from hanging) within 2 min were observed.
The mice were weighed 1 h later after the final administration; blood of inner canthus was taken via a capillary to detect the blood coagulation time.
Blood was taken to detect the content of 5-HT in serum via high-performance liquid chromatography. Cerebrum was taken on an ice and precooled and cleaned slightly with 0.5% sodium carboxymethylcellulose, and then sucked dry with a filter paper, and placed into a cryogenic tube, and preserved at -20° C. for further use, then the content of 5-HT in brain tissues was detected by high performance liquid chromatography.
5-HT test method: a sample was precipitated with 10% perchloric acid solution according to 1:1, and then centrifuged to take supernatant for test. Chromatographic conditions: the chromatographic column is a SHIMADZU VP-ODS C18 column (250*4.6 mm, 5 um), the mobile phase is a methanol-0.01 mol/L potassium acetate buffer solution (10:90, V/V, PH is adjusted to 4.00 with 0.2 mol/L citric acid) for gradient elution; the column temperature is 25° C., flow rate is 1.00 ml/min and test wavelength is 275 nm.

For `O=C(Nc1ccccc1)C1CCN(C(=O)c2ccc(Oc3ccccc3)cc2)CC1` [MAGLZ-II-01], the IC50 [1] was 45 nM, the “content in the brain (tissue distribution)” value ([2]; 1.0 h) was 0 and the “content in the brain (tissue distribution)” value ([2]; 2.0 h) was 0.6. The “content in the brain (tissue distribution)” value ([2]; 5.0 h) was 0.9.
With `Cc1cc(C)cc(NC(=O)C2CCN(C(=O)c3ccc(Oc4ccccc4)cc3)CC2)c1` [MAGLZ-II-02] the IC50 [1] was 27 nM, the “content in the brain (tissue distribution)” value ([2]; 1.0 h) was 0 and the “content in the brain (tissue distribution)” value ([2]; 2.0 h) was 1.2. The “content in the brain (tissue distribution)” value ([2]; 5.0 h) was 3.7.
Molecule `COc1cccc(NC(=O)C2CCN(C(=O)c3ccc(Oc4ccccc4)cc3)CC2)c1` [MAGLZ-II-03] has an IC50 [1] of 749 nM.
`CCCC(=O)Oc1cccc(C(=O)N2CCC(C(=O)Nc3cccc(Cl)c3)CC2)c1` [MAGLZ-II-11F] showed an IC50 [1] of 126 nM.
With `N[C@H](Cc1ccc(O)cc1)C(=O)Oc1cccc(C(=O)N2CCC(C(=O)Nc3cccc(Cl)c3)CC2)c1` [MAGLZ-II-11J] the IC50 [1] was 1600 nM.
In the case of `COc1cccc(C(=O)N2CCC(C(=O)Nc3cccc(Cl)c3)CC2)c1` [MAGLZ-II-14], the IC50 [1] is reported as 333 nM.
In the case of `O=C(Nc1cccc(Cl)c1)C1CCN(C(=O)c2ccc(Oc3ccccc3)cc2)CC1` [MAGLZ-II-16], the “content in the brain, ranking of the test substances” value [2] is reported as “highest”, the “content in the brain (tissue distribution)” value ([2]; 1.0 h) is reported as 0 and the “content in the brain (tissue distribution)” value ([2]; 2.0 h) is reported as 32.8. The “content in the brain (tissue distribution)” value ([2]; 5.0 h) was 16.9, the “effect on reserpine-induced depression (conclusion)” value ([3]; 4, 8 and 16 mg/kg sc 6 d) was “has a certain effect” and the Autonomic activity ([3]; high dose 16 mg/kg sc 6 d) was 0.6±0.6. For the same molecule, the Awakening ([3]; high dose 16 mg/kg sc 6 d) was 2±0, the Eyelid closure ([3]; high dose 16 mg/kg sc 6 d) was 0±0 and the Fear ([3]; high dose 16 mg/kg sc 6 d) was 0±0. The Finger contact ([3]; high dose 16 mg/kg sc 6 d) was 1.6±0.8, the Head touch ([3]; high dose 16 mg/kg sc 6 d) was 0.8±0.98 and the Upright ([3]; high dose 16 mg/kg sc 6 d) was 0.4±1.2. For the same molecule, the Autonomic activity ([3]; low dose 4 mg/kg sc 6 d) was 0±0, the Awakening ([3]; low dose 4 mg/kg sc 6 d) was 2±0 and the Eyelid closure ([3]; low dose 4 mg/kg sc 6 d) was 0±0. It also gave a Fear ([3]; low dose 4 mg/kg sc 6 d) of 0±0, a Finger contact ([3]; low dose 4 mg/kg sc 6 d) of 1.4±0.92 and a Head touch ([3]; low dose 4 mg/kg sc 6 d) of 0.4±0.8. For the same molecule, the Upright ([3]; low dose 4 mg/kg sc 6 d) was 0±0, the Autonomic activity ([3]; middle dose 8 mg/kg sc 6 d) was 0.2±0.6 and the Awakening ([3]; middle dose 8 mg/kg sc 6 d) was 1.8±0.6. The Eyelid closure ([3]; middle dose 8 mg/kg sc 6 d) was 0±0, the Fear ([3]; middle dose 8 mg/kg sc 6 d) was 0±0 and the Finger contact ([3]; middle dose 8 mg/kg sc 6 d) was 1.2±0.98. The Head touch ([3]; middle dose 8 mg/kg sc 6 d) was 0.8±0.98 and the Upright ([3]; middle dose 8 mg/kg sc 6 d) was 0±0.
In the case of `O=C(Nc1ccc(Cl)c(Cl)c1)C1CCN(C(=O)c2ccc3ccccc3c2)CC1` [MAGLZ-II-24], the IC50 [1] is reported as 275 nM.
With `O=C(Nc1cc(Cl)cc(Cl)c1)C1CCN(C(=O)c2ccc3ccccc3c2)CC1` [MAGLZ-II-25] the IC50 [1] was 139 nM.
With `O=C(Nc1cccc(Cl)c1)C1CCN(C(=O)c2ccc3cc(O)ccc3c2)CC1` [MAGLZ-II-29] the IC50 [1] was 252 nM.
Molecule `O=C(c1cccc(O)c1)N1CCC(c2nc3cc(Cl)ccc3o2)CC1` [MAGLZ-II-30] has an IC50 [1] of 11 nM.
In the case of `Nc1ccc(O)c(C(=O)O)c1` [Mesalazine, reference compound], the “Total times of hematochezia within the four periods” value [4] is reported as 32.80±4.96, the Colon length ([4]; four periods) is reported as 6.66±0.68 cm and the IL-1 content ([4]; serum, ELISA) is reported as 48.33 ± 6.49 pg/mL.
`O=C(O)Cc1ccccc1Nc1c(Cl)cccc1Cl` [Positive medicament, diclofenac sodium, reference compound] showed a Writhing times ([5]; 1 h before 0.7% acetic acid ip, within 20 min) of 24.5±12.9, a Latent time ([5]; time to first writhing) of 358.5 ± 172.7 s and an Inhibition ratio ([5]; writhing inhibition) of 37.7%. The Pain threshold ([6]; 0 d) was 12.71 ± 2.55 s, the Pain threshold ([6]; 1 d) was 6.38±0.91^∗ s and the Pain threshold ([6]; 3 d) was 8.05±1.23^∗ s. The Pain threshold ([6]; 7 d) was 9.00±0.911^∗ s, the Pain threshold ([7]; 30 min after final administration) was 22.32 ± 6.76 s and the Pain threshold ([7]; 60 min) was 24.34 ± 8.19 s. It also gave a Pain threshold ([7]; 90 min) of 22.64 ± 6.48 s and a Pain threshold ([7]; 120 min) of 22.52 ± 6.91 s.
In the case of `CN(C)CCc1c[nH]c2ccc(C[C@H]3COC(=O)N3)cc12` [Zolmitriptan, reference compound], the Blood coagulation time ([8]; reserpine 0.2 mg/kg sc mice, 0.5 mg/kg ig 10 d, 1 h after final administration) is reported as 185.12±38.86 S, the “brain tissue 5-HT” value ([8]; reserpine mice, 0.5 mg/kg ig 10 d) is reported as 1.93 ± 0.37 nmol/g and the “Times of tail suspension (struggling times within 2 min)” value ([8]; reserpine mice, 0.5 mg/kg ig, 9th day) is reported as 18.13 ± 3.94.
